# Key:
# Assay type in all cases: cell-based
# EctD (H. elongata) = molecular target: T1, EctD (H. elongata) (Halomonas elongata, UniProt E1VA04); experiment: whole-cell biotransformation in E. coli FF4169, HPLC; conditions: 10 mM ectoine in medium, MMA with 0.4 M NaCl, 37 °C, 24 h; Fe(II) and 2-oxoglutarate of the cell
# T1 construct: full length, Strep-tag II, plasmid pMP32, expressed in E. coli FF4169
# T1 sequence (E1VA04 1-332): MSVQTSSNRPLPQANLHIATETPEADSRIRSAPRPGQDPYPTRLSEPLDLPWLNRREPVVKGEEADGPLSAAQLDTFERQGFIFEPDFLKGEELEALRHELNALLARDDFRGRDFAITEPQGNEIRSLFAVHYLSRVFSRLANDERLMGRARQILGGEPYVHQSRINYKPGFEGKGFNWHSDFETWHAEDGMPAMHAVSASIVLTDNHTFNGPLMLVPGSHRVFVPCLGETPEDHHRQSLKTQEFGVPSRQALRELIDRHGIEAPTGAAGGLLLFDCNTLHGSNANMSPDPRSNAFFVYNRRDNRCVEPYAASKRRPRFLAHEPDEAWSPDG
# EctD (N. maritimus) = molecular target: T2, EctD (N. maritimus) (Nitrosopumilus maritimus, UniProt A9A2K0); experiment: as above; conditions: 10 mM ectoine in medium, MMA with 0.4 M NaCl, 37 °C, 24 h; Fe(II) and 2-oxoglutarate of the cell
# T2 construct: gene Nmar_1343; full length, Strep-tag II, codon-optimized gene, plasmid pMP45, expressed in E. coli FF4169
# T2 sequence (A9A2K0 1-304): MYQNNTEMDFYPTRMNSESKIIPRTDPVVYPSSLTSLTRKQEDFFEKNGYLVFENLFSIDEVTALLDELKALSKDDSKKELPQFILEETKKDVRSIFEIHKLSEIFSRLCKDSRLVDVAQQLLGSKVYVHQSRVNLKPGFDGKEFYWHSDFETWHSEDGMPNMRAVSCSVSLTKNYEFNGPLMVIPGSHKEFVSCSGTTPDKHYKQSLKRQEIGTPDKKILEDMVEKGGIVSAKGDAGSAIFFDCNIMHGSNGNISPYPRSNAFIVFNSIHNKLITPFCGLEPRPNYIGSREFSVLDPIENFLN
# EctD (S. alaskensis) = molecular target: T3, EctD (S. alaskensis) (Sphingopyxis alaskensis, UniProt Q1GNW5); experiment: as above; conditions: 10 mM ectoine in medium, MMA with 0.4 M NaCl, 37 °C, 24 h; Fe(II) and 2-oxoglutarate of the cell
# T3 construct: full length, Strep-tag II, plasmid pMP40, expressed in E. coli FF4169; homodimer
# T3 sequence (Q1GNW5 1-306): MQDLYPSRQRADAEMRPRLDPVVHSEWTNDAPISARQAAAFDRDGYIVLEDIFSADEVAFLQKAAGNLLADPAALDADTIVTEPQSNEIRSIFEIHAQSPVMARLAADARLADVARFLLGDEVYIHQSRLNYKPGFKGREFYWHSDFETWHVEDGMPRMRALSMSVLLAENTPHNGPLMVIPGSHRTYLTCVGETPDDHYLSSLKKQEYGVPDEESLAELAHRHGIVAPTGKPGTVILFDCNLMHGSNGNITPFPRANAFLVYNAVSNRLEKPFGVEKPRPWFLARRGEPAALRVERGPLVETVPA
# EctD (A. ehrlichii) = molecular target: T4, EctD (A. ehrlichii) (Alkalilimnicola ehrlichii, UniProt A0A3E0X329); experiment: as above; conditions: 10 mM ectoine in medium, MMA with 0.4 M NaCl, 37 °C, 24 h; Fe(II) and 2-oxoglutarate of the cell
# T4 construct: gene CAL65_03675; full length, Strep-tag II, codon-optimized gene, plasmid pMP44, expressed in E. coli FF4169
# T4 sequence (A0A3E0X329 1-303): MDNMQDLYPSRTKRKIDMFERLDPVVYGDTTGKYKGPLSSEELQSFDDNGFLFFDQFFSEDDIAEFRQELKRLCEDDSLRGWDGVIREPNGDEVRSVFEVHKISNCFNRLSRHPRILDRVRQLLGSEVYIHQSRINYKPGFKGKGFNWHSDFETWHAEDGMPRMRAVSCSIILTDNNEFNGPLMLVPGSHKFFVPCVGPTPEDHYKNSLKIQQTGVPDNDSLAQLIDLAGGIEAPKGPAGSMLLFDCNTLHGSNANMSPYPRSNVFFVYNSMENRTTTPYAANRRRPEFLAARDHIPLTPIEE
# [1] = molecular target: T5, EctD (P. stutzeri A1501), ectoine hydroxylase (Stutzerimonas stutzeri, UniProt A4VFY4); experiment: as above; conditions: 10 mM ectoine in medium, MMA with 0.4 M NaCl, 37 °C, 24 h; Fe(II) and 2-oxoglutarate of the cell
# T5 construct: homodimer
# T5 sequence (A4VFY4 1-302): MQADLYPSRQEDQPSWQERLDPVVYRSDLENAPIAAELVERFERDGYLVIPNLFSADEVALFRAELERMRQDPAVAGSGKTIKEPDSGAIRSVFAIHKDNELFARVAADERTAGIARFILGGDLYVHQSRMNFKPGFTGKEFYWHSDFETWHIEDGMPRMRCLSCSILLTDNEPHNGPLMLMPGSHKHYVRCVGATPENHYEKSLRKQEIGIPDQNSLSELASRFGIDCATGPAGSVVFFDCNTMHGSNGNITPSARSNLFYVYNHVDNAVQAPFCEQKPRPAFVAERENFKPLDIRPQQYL
# EctD (P. lautus) = molecular target: T6, EctD (P. lautus) (Paenibacillus lautus, UniProt A0A385TC02); experiment: as above; conditions: 10 mM ectoine in medium, MMA with 0.4 M NaCl, 37 °C, 24 h; Fe(II) and 2-oxoglutarate of the cell
# T6 construct: gene thpD; full length, Strep-tag II, codon-optimized gene, plasmid pMP43, expressed in E. coli FF4169
# T6 sequence (A0A385TC02 1-302): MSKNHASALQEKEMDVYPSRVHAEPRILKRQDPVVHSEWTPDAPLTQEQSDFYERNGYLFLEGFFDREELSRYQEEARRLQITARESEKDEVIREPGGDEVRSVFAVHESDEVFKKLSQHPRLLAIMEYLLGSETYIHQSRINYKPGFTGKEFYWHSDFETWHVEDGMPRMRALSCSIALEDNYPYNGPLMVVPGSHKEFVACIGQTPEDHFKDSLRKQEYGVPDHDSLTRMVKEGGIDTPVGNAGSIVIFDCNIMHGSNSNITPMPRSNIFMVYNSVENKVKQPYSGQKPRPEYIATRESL
# ProU ABC transporter = molecular target: T7, ProU ABC transporter (Escherichia coli, UniProt P0AFM2); experiment: inhibition of [[…]-14C]glycine betaine uptake, whole cells of ProP- ProU+ strain; conditions: 100 µM [1-14C]glycine betaine, MMA with 0.4 M NaCl, 37 °C, 5 min
# T7 construct: gene proX; native chromosomal transporter in whole cells of a proP deletion strain; with Glycine betaine/proline betaine transport system permease protein ProW
# ProP = molecular target: T8, ProP (Escherichia coli, UniProt P0C0L7); experiment: inhibition of [[…]-14C]glycine betaine uptake, whole cells of ProP+ ProU- strain; conditions: 100 µM [1-14C]glycine betaine, MMA with 0.4 M NaCl, 37 °C, 5 min; unlabelled glycine betaine 1 mM; labelled compound
# T8 construct: native chromosomal transporter in whole cells of a proU deletion strain
# T8 sequence (P0C0L7 whole entry): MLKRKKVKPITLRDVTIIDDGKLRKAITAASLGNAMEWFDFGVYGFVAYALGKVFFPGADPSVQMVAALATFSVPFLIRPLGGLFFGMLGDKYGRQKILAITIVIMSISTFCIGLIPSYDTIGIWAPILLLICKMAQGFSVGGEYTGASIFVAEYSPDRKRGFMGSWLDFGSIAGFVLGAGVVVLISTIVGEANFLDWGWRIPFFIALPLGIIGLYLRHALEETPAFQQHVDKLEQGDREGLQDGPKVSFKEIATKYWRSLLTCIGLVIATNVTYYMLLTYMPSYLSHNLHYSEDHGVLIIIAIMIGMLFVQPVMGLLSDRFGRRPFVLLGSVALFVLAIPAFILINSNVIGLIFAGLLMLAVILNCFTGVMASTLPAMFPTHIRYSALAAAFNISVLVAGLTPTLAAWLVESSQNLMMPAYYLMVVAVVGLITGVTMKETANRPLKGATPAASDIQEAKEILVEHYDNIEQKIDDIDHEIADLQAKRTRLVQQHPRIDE
# T7 sequence (P14176 whole entry): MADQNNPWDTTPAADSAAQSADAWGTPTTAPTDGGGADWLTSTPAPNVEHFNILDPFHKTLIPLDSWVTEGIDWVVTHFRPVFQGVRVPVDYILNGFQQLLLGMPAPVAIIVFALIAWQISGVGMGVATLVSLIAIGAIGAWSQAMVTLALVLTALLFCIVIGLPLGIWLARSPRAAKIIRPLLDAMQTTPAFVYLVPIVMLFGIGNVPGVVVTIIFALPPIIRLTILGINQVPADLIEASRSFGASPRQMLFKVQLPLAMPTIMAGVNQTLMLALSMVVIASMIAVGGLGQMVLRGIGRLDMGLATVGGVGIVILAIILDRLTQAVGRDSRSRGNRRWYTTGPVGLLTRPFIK
# T7 sequence (P0AFM2 22-330): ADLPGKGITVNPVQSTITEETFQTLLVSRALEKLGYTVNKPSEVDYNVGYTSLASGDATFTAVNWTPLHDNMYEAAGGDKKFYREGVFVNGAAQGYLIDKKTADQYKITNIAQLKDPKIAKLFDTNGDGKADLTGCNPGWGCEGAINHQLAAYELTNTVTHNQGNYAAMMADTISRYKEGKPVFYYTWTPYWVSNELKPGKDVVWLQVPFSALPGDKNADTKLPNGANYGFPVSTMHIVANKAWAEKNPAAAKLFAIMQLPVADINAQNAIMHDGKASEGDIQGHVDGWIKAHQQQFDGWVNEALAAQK
# T7 sequence (P14175 whole entry, further chain): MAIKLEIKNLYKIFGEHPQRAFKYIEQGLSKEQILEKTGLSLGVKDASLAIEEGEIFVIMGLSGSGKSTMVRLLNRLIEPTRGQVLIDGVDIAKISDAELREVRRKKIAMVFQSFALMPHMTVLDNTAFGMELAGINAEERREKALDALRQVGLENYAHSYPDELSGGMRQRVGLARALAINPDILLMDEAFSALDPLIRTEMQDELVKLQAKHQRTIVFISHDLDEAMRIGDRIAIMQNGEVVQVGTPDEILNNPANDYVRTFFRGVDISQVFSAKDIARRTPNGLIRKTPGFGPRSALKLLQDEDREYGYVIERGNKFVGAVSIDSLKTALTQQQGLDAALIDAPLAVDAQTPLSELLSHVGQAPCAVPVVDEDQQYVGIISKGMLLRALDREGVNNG
% inhibition at 1000-fold excess (ProU ABC transporter; competitor 1000-fold excess (100 mM)) [%],% inhibition at tenfold excess (ProP),"% inhibition at tenfold excess (ProU ABC transporter; unlabelled glycine betaine 1 mM, labelled compound)",Structure (SMILES),"whole-cell biotransformation in E. coli FF4169, HPLC (EctD (H. elongata))","whole-cell biotransformation in E. coli FF4169, HPLC (EctD (N. maritimus))","whole-cell biotransformation in E. coli FF4169, HPLC (EctD (S. alaskensis))","whole-cell biotransformation in E. coli FF4169, HPLC (EctD (A. ehrlichii))","whole-cell biotransformation in E. coli FF4169, HPLC [1]","whole-cell biotransformation in E. coli FF4169, HPLC (EctD (P. lautus))"
45,,,"CC1=NCC[C@@H](C(=O)O)N1 [ectoine, (S)-2-methyl-1,4,5,6-tetrahydropyrimidine-4-carboxylic acid]",a mixture of the added ectoine and the newly produced 5-hydroxyectoine were observed,almost all of the provided ectoine had been converted into 5-hydroxyectoine,a mixture of the added ectoine and the newly produced 5-hydroxyectoine were observed,a mixture of the added ectoine and the newly produced 5-hydroxyectoine were observed,almost all of the provided ectoine had been converted into 5-hydroxyectoine,a mixture of the added ectoine and the newly produced 5-hydroxyectoine were observed
,~ 85%,~ 85%,C[N+](C)(C)CC(=O)[O-] [glycine betaine],,,,,,
